# According to US12370170B2, “Composition comprising naphthoquinone-based compound as active ingredient, for preventing or ameliorating fatigue, cachexia, pain, cognitive decline and hematopoietic stem cell reduction which are side effects related to anticancer drug treatment” (NADIANBIO LTD., priority 2016, dated 2025):
# What was measured:
# Assay type in all cases: in vivo, C57BL/6 mice
# [1] = system: orexin; assay: Orexin protein in hypothalamus by ELISA, 4×ACP animal model; details: dunnione 80 mg/kg oral daily from 3 days before, 2 days after ACP
# Description: (§1) In this invention, 11 weeks old C57BL/6 mice were used. All the mice used in the experiments of the invention were raised in an aseptic animal room at the temperature of 22˜26 L with the humidity of 55˜60%. The mice were allowed to take general solid feed (SAMTACO Co., Ltd., Korea) and water freely. The mice were adapted for 1 week before the experiment. All the experiments were performed after obtaining approval from the clinical trial management committee in accordance with the laboratory animal care and ethics regulations of Wonkwang University. The mouse animal model of the present invention was treated with different anticancer drugs. Particularly, one kind of anticancer drug was administered intraperitoneally one time or more, or several kinds of anticancer drugs were administered once or more times or at different concentrations, leading to the establishment of the animal model of the invention. […]
# To analyze orexin protein in the 4×ACP animal model prepared by the same manner as described in Example 8, the hypothalamus of the mouse was extracted, followed by the preparation of a homogenate. Orexin (MyBioSource, MBS2505504) was analyzed by ELISA to investigate the regulatory effect of β-lapachone on orexin.
# [2] = system: inflammatory cytokines TNF-α, IL-1β, IL-6 and IL-17; assay: Plasma inflammatory cytokines by ELISA in gemcitabine (500 mg/kg) animal model; details: gemcitabine 500 mg/kg i.p. once; dunnione 20 mg/kg oral daily from 3 days before; 2 days after gemcitabine; vs gemcitabine group
# Description: as §1
# Plasma was isolated from the gemcitabine animal model prepared by the same manner as described in Example 5, and the inflammatory cytokines TNF-α, IL-1β, IL-6 and IL-17 were analyzed by ELISA.
# [3] = system: MAFbx, MuRF1 and Bnip3 mRNAs; assay: Muscle loss related gene expression in cyclophosphamide induced animal model; details: cyclophosphamide 350 mg/kg total; dunnione 20 mg/kg oral; vs cyclophosphamide group
# [4] = system: F4/80 positive cells (macrophages); assay: Inflow of macrophages into femur, F4/80 immunohistostaining, 4×ACP animal model; details: dunnione 80 mg/kg oral
# Description: as §1, with “invention. In the adriamycin-induced animal model, the mice were divided into 6 groups as follows: the control group administered with PBS (Control, 5 mice), the group administered intraperitoneally with adriamycin (4 mg/kg/day) 3 times (ADR, 5 mice), the group administered orally with dunnione or β-lapachone from 3 days before the adriamycin treatment daily (20 mg/kg, 5 mice), and the group administered with dunnione or β-lapachone (20 mg/kg, 5 mice).” for “invention.”
# [5] = system: inflammatory cytokines TNF-α and IL-1β; assay: Brain inflammatory response: TNF-α and IL-1β in hypothalamus (RT-PCR, ELISA), 4×ACP animal model; details: dunnione 80 mg/kg oral
# Description: (§2) In this invention, 11 weeks old C57BL/6 mice were used. All the mice used in the experiments of the invention were raised in an aseptic animal room at the temperature of 22˜26 L with the humidity of 55˜60%. The mice were allowed to take general solid feed (SAMTACO Co., Ltd., Korea) and water freely. The mice were adapted for 1 week before the experiment. All the experiments were performed after obtaining approval from the clinical trial management committee in accordance with the laboratory animal care and ethics regulations of Wonkwang University. The mouse animal model of the present invention was treated with different anticancer drugs. Particularly, one kind of anticancer drug was administered intraperitoneally one time or more, or several kinds of anticancer drugs were administered once or more times or at different concentrations, leading to the establishment of the animal model of the invention. In the adriamycin-induced animal model, the mice were divided into 6 groups as follows: the control group administered with PBS (Control, 5 mice), the group administered intraperitoneally with adriamycin (4 mg/kg/day) 3 times (ADR, 5 mice), the group administered orally with dunnione or β-lapachone from 3 days before the adriamycin treatment daily (20 mg/kg, 5 mice), and the group administered with dunnione or β-lapachone (20 mg/kg, 5 mice). 4 days after the final adriamycin treatment, analysis of the mice was performed.
# The present inventors established an animal model co-treated with three different anticancer drugs in this experiment. The anticancer drugs used herein were adriamycin (ADR), cyclophosphamide (CYP) and paclitaxel (PTX), which were indicated as ACP. […]
# A homogenate was prepared with the mouse hypothalamus extracted from the 4×ACP animal model prepared by the same manner as described in Example 8. Then, the expressions of the inflammatory cytokines TNF-α and IL-1β in the brain tissue were analyzed by ELISA.
# [6] = system: TNF-α; assay: TNF-α expression in femur by immunohistostaining, 4×ACP animal model; details: dunnione 80 mg/kg oral
# Description: as §2, with “4 days after the final adriamycin treatment, analysis of the mice was performed.” left out
smiles,measurement,setting,value
"CC1OC2=C(C(=O)C(=O)c3ccccc32)C1(C)C (stereo not shown) [dunnione, 2,3-dihydro-2,3,3-trimethyl naphtho [1,2-b]furan-4,5-dione]",orexin reduction in the hypothalamus,[1],recovered significantly almost to the same level of the control group
same,"level of inflammatory cytokines (TNF-α, IL-1β, IL-6, IL-17) in plasma",[2],significantly reduced
same,"expressions of MAFbx, MuRF1 and Bnip3 mRNAs in muscle",[3],significantly reduced
same,increased F4/80 positive cells in the bone (femur),[4],significantly reduced
same,up-regulations of TNF-α and IL-1β at protein level in the hypothalamus,[5]; ELISA,significantly suppressed
same,up-regulations of TNF-α and IL-1β at RNA level in the hypothalamus,[5]; RT-PCR,significantly suppressed
same,up-regulation of TNF-α in the bone (femur),[6],significantly suppressed
